Data: ChEMBL document CHEMBL4330073, “Discovery and development of small molecule modulators targeting glutamine metabolism” (Eur J Med Chem, 2019)
pIC50: −log10 of the molar value.

What was measured:
Bos taurus = species on record: Bos taurus; assay: Inhibition of bovine GDH
[1] = target: T1, Cystine/glutamate transporter (Homo sapiens, UniProt Q9UPY5); assay: Inhibition of xCT-mediated cystein/glutamate transporter (unknown origin) assessed as reduction in L-[14C]cyctein uptake
T1 sequence (Q9UPY5 whole entry): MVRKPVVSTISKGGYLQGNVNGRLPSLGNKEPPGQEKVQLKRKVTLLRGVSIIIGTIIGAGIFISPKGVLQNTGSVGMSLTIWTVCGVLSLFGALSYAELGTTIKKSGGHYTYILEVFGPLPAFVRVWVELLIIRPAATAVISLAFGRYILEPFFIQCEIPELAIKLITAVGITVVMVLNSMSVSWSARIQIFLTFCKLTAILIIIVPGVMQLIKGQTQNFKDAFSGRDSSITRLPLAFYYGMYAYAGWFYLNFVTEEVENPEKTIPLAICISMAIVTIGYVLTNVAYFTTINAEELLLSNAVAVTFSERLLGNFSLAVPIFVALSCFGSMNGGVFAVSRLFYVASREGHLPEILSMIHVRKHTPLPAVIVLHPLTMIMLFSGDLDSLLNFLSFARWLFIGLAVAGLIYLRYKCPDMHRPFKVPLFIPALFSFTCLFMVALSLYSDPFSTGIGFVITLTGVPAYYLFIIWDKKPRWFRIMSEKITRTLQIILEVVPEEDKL

[2] = target: T2, Glutaminase kidney isoform, mitochondrial (Homo sapiens, UniProt O94925); assay: Inhibition of GAC (unknown origin)
T2 sequence (O94925 whole entry): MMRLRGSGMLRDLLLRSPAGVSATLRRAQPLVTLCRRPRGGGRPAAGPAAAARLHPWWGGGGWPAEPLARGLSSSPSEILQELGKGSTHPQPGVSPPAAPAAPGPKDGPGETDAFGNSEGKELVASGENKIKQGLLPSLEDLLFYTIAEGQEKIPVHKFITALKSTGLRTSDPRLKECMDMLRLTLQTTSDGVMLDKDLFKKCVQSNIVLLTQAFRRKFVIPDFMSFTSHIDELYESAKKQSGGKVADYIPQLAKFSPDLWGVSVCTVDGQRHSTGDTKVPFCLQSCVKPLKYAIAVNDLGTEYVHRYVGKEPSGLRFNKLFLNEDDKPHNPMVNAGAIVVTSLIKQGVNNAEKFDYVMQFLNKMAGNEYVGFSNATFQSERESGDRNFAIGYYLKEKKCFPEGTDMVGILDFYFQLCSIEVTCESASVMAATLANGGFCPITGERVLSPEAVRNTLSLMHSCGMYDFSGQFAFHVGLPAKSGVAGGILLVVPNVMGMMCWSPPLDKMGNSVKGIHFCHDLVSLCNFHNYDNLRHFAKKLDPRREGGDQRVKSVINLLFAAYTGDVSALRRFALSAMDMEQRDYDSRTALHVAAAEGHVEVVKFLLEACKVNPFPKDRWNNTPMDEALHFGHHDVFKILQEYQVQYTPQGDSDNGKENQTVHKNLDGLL

[3] = target: T2, Glutaminase kidney isoform, mitochondrial; assay: Inhibition of human GAC after 10 mins by glutamate oxidase coupled Amplex UltraRed dye based assay
[4] = target: T2, Glutaminase kidney isoform, mitochondrial; assay: Inhibition of recombinant GAC (unknown origin) after 15 mins in presence of NADPH by glutamate oxidase coupled spectrophotometric analysis
[5] = target: T3, Glutaminase kidney isoform, mitochondrial (Homo sapiens) (UniProt O94925); assay: Inhibition of recombinant GAC (unknown origin) at 0.1 uM after 15 mins in presence of NADPH by glutamate oxidase coupled spectrophotometric analysis relative to control
T3 sequence (whole entry): T2 sequence (O94925 whole entry)

Structure (SMILES)	pIC50 [2]	other results
O=C(O[C@@H]1Cc2c(O)cc(O)cc2O[C@@H]1c1cc(O)c(O)c(O)c1)c1cc(O)c(O)c(O)c1	–	ED50 (Bos taurus): 300 nM
O=C(O)c1cc(/C=C/c2ccc(S(=O)(=O)Nc3ccccn3)cc2)ccc1O	–	pIC50 [1]: 4.52
O=C(Cc1ccccc1)Nc1ccn(CCCCn2cc(C(=O)NCc3cccc(OC(F)(F)F)c3)nn2)c(=O)c1	> 7.00	–
O=C(NCc1cccc(C(F)(F)F)c1)c1cn(CCCCn2cc(C(=O)NCc3cccc(C(F)(F)F)n3)nn2)nn1	–	pIC50 [3]: > 7.00
O=C(Cc1cccc(OC(F)(F)F)c1)Nc1ccc(CCCCc2nnc(NC(=O)Cc3ccccn3)s2)cn1	–	pIC50 [4]: 7.00 to 7.30
O=C(O)c1cc(C#Cc2ccc(S(=O)(=O)Nc3ccccn3)cc2)ccc1O	–	pIC50 [1]: 4.15
O=C(O[C@@H]1Cc2c(O)cc(O)cc2O[C@@H]1c1ccc(O)c(O)c1)c1cc(O)c(O)c(O)c1	–	ED50 (Bos taurus): 300 nM
O=C(NCc1ccccc1)c1cn(CCCCn2cc(C(=O)NCc3cccc(C(F)(F)F)n3)nn2)nn1	–	pIC50 [3]: 6.30 to 7.00
Cc1nc(NC(=O)Cc2cccc(OC(F)(F)F)c2)ccc1CCCCc1nnc(NC(=O)Cc2ccccn2)s1	–	inhibition [5]: < 25%
O=C(Cc1ccccc1)Nc1ccn(CCCCn2ccc(NC(=O)Cc3ccccc3)nc2=O)c(=O)n1	< 6.30	–
O=C(Cc1ccccc1)Nc1nnc(C[C@H]2C[C@@H]2Cc2nnc(NC(=O)Cc3ccccc3)s2)s1 (racemic)	6.30 to 7.00	–
O=C(Cc1ccccc1)Nc1nnc([C@@H]2CC[C@H](c3nnc(NC(=O)Cc4ccccc4)s3)C2)s1	5.70 to 6.00	–
O=C(Cc1ccccc1)Nc1ccn(CCCCc2ccc(NC(=O)Cc3cccc(OC(F)(F)F)c3)nn2)c(=O)c1	> 7.00	–
O=C(Cc1ccccc1)Nc1nnc([C@H]2CCC[C@H](c3nnc(NC(=O)Cc4ccccc4)s3)C2)s1 (racemic)	> 7.00	–
O=C(Cc1ccccc1)Nc1ccn(CCCCn2cc(C(=O)NCc3cccc(OC(F)(F)F)c3)nn2)c(=O)c1F	> 7.00	–
O=C(NCC1CCCCC1)c1cn(CCCCn2cc(C(=O)NCC3CCCCC3)nn2)nn1	–	pIC50 [3]: < 6.30

Structure (SMILES)	pIC50 [2]	other results
O=C(Cc1ccccc1)Nc1nnc(CCCCc2cnc3[nH]c(Cc4ccccc4)nc3c2)s1	< 6.30	–
O=C(Cc1ccccc1)Nc1nnc(CCCCn2cc(C(=O)NCc3ccccc3)nn2)s1	–	pIC50 [3]: > 7.00
O=C(NCc1ccccc1)c1cn(CCCCc2cc3cc(Cc4ccccc4)[nH]c3nn2)nn1	> 7.00	–
O=C(Cc1ccccc1)Nc1ccn(CCCCc2cc3cc(Cc4ccccc4)[nH]c3nn2)c(=O)c1	> 7.00	–
O=C(Cc1cccc(OC(F)(F)F)c1)Nc1ccc(CCCCc2nnc(NC(=O)Cc3ccccn3)s2)nc1	–	inhibition [5]: < 25%
O=C(Cc1cccc(OC(F)(F)F)c1)Nc1cnc(CCCCc2nnc(NC(=O)Cc3ccccn3)s2)cn1	–	inhibition [5]: < 25%
O=C(Cc1ccccc1)Nc1nnc(CCCCn2ccc(NC(=O)Cc3ccccc3)c(F)c2=O)s1	> 7.00	–
O=C(Cc1ccccc1)Nc1nnc(CCCCc2cc3cc(Cc4ccccc4)[nH]c3nn2)s1	> 7.00	–
O=C(Cc1ccccc1)Nc1ccn(CCCCc2nnc(NC(=O)Cc3ccccc3)s2)c(=O)n1	> 7.00	–
CNC(=O)c1cn(CCCCc2ccc(C(=O)NCc3ccccc3)nn2)nn1	–	pIC50 [3]: > 7.00
O=C(O)c1cc(/N=N/c2ccc(S(=O)(=O)Nc3ccccn3)cc2)ccc1O [SULFASALAZINE]	–	pIC50 [1]: 4.52 to 6.80
O=C(Cc1cccc(OC(F)(F)F)c1)Nc1ncc(CCCCc2nnc(NC(=O)Cc3ccccn3)s2)cn1	–	inhibition [5]: < 25%
O=C(Cc1ccccc1)Nc1ccn(CCCCc2nnc(NC(=O)Cc3ccccc3)s2)c(=O)c1	> 7.00	–
O=C(Cc1ccccc1)Nc1nnc([C@@H]2CCC[C@H](c3nnc(NC(=O)Cc4ccccc4)s3)C2)s1	5.70 to 6.00	–
O=C(Cc1ccccc1)Nc1nnc([C@H]2CC[C@H](c3nnc(NC(=O)Cc4ccccc4)s3)C2)s1 (racemic)	6.30 to 7.00	–
